Tests used:
[1] = system: IL-23R; assay: IL-23R expression in naïve human CD4+ T cells, flow cytometry; format: cell-based; details: 10 μM PGE2, 10 μM butaprost, 35 μM misoprostol, 10 μM sulprostone; restimulated 48 hours; FIGS. 4A, 4B
Method: FIGS. 4A and 4B present results obtained in experiments in which naïve human CD4^+ T cells are activated with T cell activation beads and cultured in the presence or absence of PGE2 or specific EP receptors agonists.
(§1) Methods used in this example are generally as described at Wilson et al. (2007) Nature Immunology 8:950. More specifically, cell culture is performed as follows. Naïve CD4^+ CD45RO^− T cells are isolated and cultured as described previously (Wilson et al. (2007), supra). Memory CD4^+ CD45RA^− T cells are isolated using the memory T cell isolation kit, human (Miltenyi, Auburn, Calif.), according to the manufacturer's instructions. Where indicated, 50 ng/ml hIL-23, 50 ng/ml hIL-1β (R&D Systems, Minneapolis, Minn.), 10 μM PGE2 (Sigma, St. Louis, Mo.), 10 μM butaprost (EP2 selective agonist), 35 μM misoprostol (EP4, EP3>EP1>EP2 agonist), and/or 10 μM sulprostone (EP1, EP3 agonist, Cayman Chemical, Ann Arbor, Mich.) are added.
For analysis of cell surface proteins, cells are stained with anti-CD4, anti-CD3, anti-CD45RA, anti-CCR6 (BD Biosciences), and/or anti-IL-23R (R&D Systems) antibodies. Data are acquired on a LSR II cytometer and analyzed with FlowJo software (Tree Star, Ashland, Oreg.).
Further experiments are performed to determine the effect of PGE2, or agonists thereof, on the expression of IL-23R in naïve human CD4^+ T cells in culture. […]

[2] = system: IL-1R1; assay: IL-1R1 gene expression in response to PGE2; format: cell-based, human; details: data not shown
Method: (§2) Real-time quantitative PCR is performed as described previously (Wilson et al. (2007), supra).
Further experiments are performed to determine the effect of PGE2, or agonists thereof, on the expression of IL-23R in naïve human CD4^+ T cells in culture. […] In addition, IL-1R1 gene expression is increased in response to PGE2 (data not shown).

[3] = system: human memory CD4+ T cells; assay: Cytokine production and gene expression in activated human memory CD4+ T cells; format: cell-based
Method: FIGS. 7A and 7B present results obtained with human memory CD4^+ T cells activated and cultured for three days in the presence of IL-23, IL-1β, and/or PGE2. […] Results from nine independent donors are shown. […] Results from four different donors are shown. Horizontal lines represent medians.
as §1
ELISA and electrochemiluminescence assays are performed as described previously (Wilson et al. (2007), supra). IL-10 ELISA is performed using a kit from R&D Systems.
as §2
Intervention with therapeutic agents, such as antagonists of the inflammatory cytokines and non-cytokine immunomodulators, might therefore be expected to be beneficial when administered both systemically and also when administered locally at (or near) the site of inflammation.

[4] = system: CCR6; assay: CCR6 expression in naïve human CD4+ T cells, flow cytometry; format: cell-based; details: PGE2 added to IL-1β and IL-23; FIG. 6A
Method: FIGS. 6A, 6B and 6C present results obtained with naïve human CD4^+ T cells cultured as described with reference to FIGS. 5A-5C. […] Results represent mean±s.e.m. of nine independent experiments. For data presented in FIGS. 6B and 6C, naïve T cells are cultured in the presence of IL-1β, IL-23, and PGE2. After reactivation, CD4^+ CCR6^+ and CD4^+CCR6^− T cells are sorted and cultured for seven days in the presence of IL-2. […] Results in each of FIGS. 6B and 6C reflect the results of four independent experiments.
Methods used in this example are generally as described at Wilson et al. (2007) Nature Immunology 8:950. More specifically, cell culture is performed as follows. Naïve CD4^+ CD45RO^− T cells are isolated and cultured as described previously (Wilson et al. (2007), supra). Memory CD4^+ CD45RA^− T cells are isolated using the memory T cell isolation kit, human (Miltenyi, Auburn, Calif.), according to the manufacturer's instructions. […]
For analysis of cell surface proteins, cells are stained with anti-CD4, anti-CD3, anti-CD45RA, anti-CCR6 (BD Biosciences), and/or anti-IL-23R (R&D Systems) antibodies. Data are acquired on a LSR II cytometer and analyzed with FlowJo software (Tree Star, Ashland, Oreg.). […]

[5] = system: naïve human CD4+ T cells; assay: Cytokine expression by naïve human CD4+ T cells cultured with IL-1β and IL-23, with or without PGE2 or EP receptor agonists; format: cell-based; details: together with IL-1β and IL-23
Method: FIGS. 5A, 5B and 5C present results obtained in naïve human CD4^+ T cells activated with T cell activation beads and cultured in the presence or absence of IL-23 and IL-1β, with or without PGE2 or the EP receptors agonists butaprost, misoprostol, and sulprostone. Data in FIGS. 5A-5C reflect IL-17A, IFN-γ and IL-10 production in cell-free supernatants of T cells restimulated for 48 hours, respectively. Results in each figure are representative of two independent experiments.
as §1
ELISA and electrochemiluminescence assays are performed as described previously (Wilson et al. (2007), supra). IL-10 ELISA is performed using a kit from R&D Systems. […]

[6] = system: CD161+ Thmem cells; assay: IL-17 production by lamina propria CD161+ Thmem cells cultured with IL-23; format: cell-based, human; details: CD161+ Thmem cells cultured in the presence of IL-23
Method: (§3) Colon and peripheral blood (PB) samples are obtained from Crohn's Disease patients. Lamina propria mononuclear cells (LPMC) are prepared from colon samples by dissociation of the epithelial layer of the mucosa, collagenase digestion of the lamina propria, and density gradient centrifugation. Peripheral blood mononuclear cells (PBMC) are isolated from PB by density gradient centrifugation and lysis of red blood cells.
Colon samples from CD patients contain approximately 20-fold more CD161^+ CD4^+ memory T cells, as determined by flow cytometry, than colon samples from normal subjects. FACS® flow cytometry purified lamina propria CD161^+ Thmem cells are found to produce 4 to 6-fold more IL-17 than CD161^− Thmem cells (as measured by ELISA) in both CD and normal samples.

[7] = system: PBMC CD161+ Thmem cells; assay: IL-17 production by PBMC CD161+ Thmem cells from CD patients cultured with IL-23; format: cell-based, human
Method: as §3
This Th17 phenotype is increased in Crohn's disease patients.

[8] = memory T cells cultured three days, FIG. 7A

Molecule | percentage of IL-23R expressing CD4+ T cells [1] | IL-1R1 gene expression [2] | IFN-γ levels [3, 8] | IL-10 levels [3, 8] | IL-17A levels [3, 8] | ROR-γt expression ([3]; real-time RT-PCR, FIG. 7B) | percentage of naïve human CD4+ T cells expressing CCR6 [4] | IL-10 expression ([5]; FIG. 5C) | IL-17 expression ([5]; FIG. 5A) | enhancement of IL-17 production [6] | IL-17 production [7]
CCCCC[C@H](O)/C=C/[C@H]1[C@H](O)CC(=O)[C@@H]1C/C=C\CCCC(=O)O [PGE2, prostaglandin E2] | more than doubles | increased | does not promote increased levels | does not promote increased levels | promotes increased levels | promotes increased levels of the IL-17A and expression of ROR-γt | increase in the percentage | Downregulation |  |  | 
CCCC1([C@H](O)C/C=C/[C@H]2[C@H](O)CC(=O)[C@@H]2CCCCCCC(=O)OC)CCC1 [butaprost] | more than doubles |  |  |  |  |  |  |  | somewhat greater increase in IL-17 expression than misoprostol |  | 
IL-23: protein consisting of two polypeptide subunits, p19 and p40 (protein, UniProt Q9NPF7 20-189; P29460 23-328, looked up) Interleukin-23 subunit alpha: RAVPGGSSPAWTQCQQLSQKLCTLAWSAHPLVGHMDLREEGDEETTNDVPHIQCGDGCDPQGLRDNSQFCLQRIHQGLIFYEKLLGSDIFTGEPSLLPDSPVGQLHASLLGLSQLLQPEGHHWETQQIPSLSPSQPWQRLLLRFKILRSLQAFVAVAARVFAHGAATLSP Interleukin-12 subunit beta: IWELKKDVYVVELDWYPDAPGEMVVLTCDTPEEDGITWTLDQSSEVLGSGKTLTIQVKEFGDAGQYTCHKGGEVLSHSLLLLHKKEDGIWSTDILKDQKEPKNKTFLRCEAKNYSGRFTCWWLTTISTDLTFSVKSSRGSSDPQGVTCGAATLSAERVRGDNKEYEYSVECQEDSACPAAEESLPIEVMVDAVHKLKYENYTSSFFIRDIIKPDPPKNLQLKPLKNSRQVEVSWEYPDTWSTPHSYFSLTFCVQVQGKSKREKKDRVFTDKTSATVICRKNASISVRAQDRYYSSSWSEWASVPCS |  |  |  |  |  |  |  |  |  | approximately 3 fold | increased IL-17 production
